Experimental findings from patent US20100087459A1, “FORMS OF LAPATINIB COMPOUNDS AND PROCESSES FOR THE PREPARATION THEREOF” (priority 2008, published 2010) are described below.

The nature of this series: stability of crystalline Form M1 in commonly used solvents and at high temperature. The series is classed as physicochemical. Particulars: solvents used for production and especially for formulation of the pharmaceutical product.

Take Lapatinib monotosylate [Form M1]: the “stability in commonly used solvents” value is listed as “high stability”.
